According to patent US20220105150A1, “AMPHIPATHIC ALPHA-HELICAL ANTIMICROBIAL PEPTIDES TREAT INFECTIONS BY GRAM-NEGATIVE PATHOGENS” (priority 2019, published 2022):
≈ marks a conversion by molar mass, not a printed value. Square brackets hold non-standard residues; d marks the D form. Peptide text beside a SMILES is read from it. Dap = NC[C@H](N)C(=O)O

What was measured:
[1] = tested on: A. baumannii strains from JMI Laboratories; settings: 20 A. baumannii isolates from JMI Laboratories; cited from earlier work
[2] = tested on: Acinetobacter baumannii isolates resistant to classical antibiotics; type: cell-based; settings: isolates resistant to classical antibiotics
Excerpt: Thus, shortening the number of carbon atoms between the side-chain amino group and the α-carbon atom from four (Lys) to one (diaminopropionic acid) had very little effect on antibacterial activity (Table 2). We also determined the antibacterial activity of our five AMPs against 20 additional Acinetobacter baumannii isolates from four continents, 12 different countries and 17 different cities that were resistant to 18 different antibiotics. […] Thus, it is very clear that changing the type of positively-charged residue on the polar face of these AMPs had very little effect on the antibacterial activities.

[3] = tested on: Acinetobacter baumannii strains resistant to Polymyxin B and Colistin; settings: strains resistant to Polymyxin B and Colistin, 24 h
Excerpt: The coupling procedure used 5 equivalents of Fmoc-D-amino acid or Fmoc-L-amino acid and HCTU (O-(1H-6-chlorobenzotriazole-1-yl)-1,1,3,3-tetramethyluronium hexafluorophosphate) and 6-Cl-HOBt (1-hydroxy-6-chloro-benztriazole) at 4.5 equivalents in DMF (Fisher Scientific, Denver, Colo.) and N-diisopropylethylamine (DIPEA) 10 equivalents (Oakwood Products, Inc., Estill, S.C.) in N-methyl-2-pyrrolidinone (NMP) (Fisher Scientific, Denver, Colo.) with the first and second couplings at room temperature for 30 min each. The deprotection procedure (removal of Fmoc protecting group) was carried out by treatment of the resin with 0.1 M HOBt (1-hydroxybenzotriazole) in DMF with 20% piperidine for 30 min. […] The resin was removed by filtration and peptide was precipitated with ice-cooled ethyl ether on ice for 15 min. Ether was decanted, the peptide was washed twice with ether and redissolved in acetonitrile/water (1:1, with 0.2% TFA) and the solution lyophilized to obtain the crude peptide. • Analytical and Preparative Purification by Reversed-Phase Chromatography: Analytical RP-HPLC: Column, Luna C18 (2), 250×4.6 mm I.D., 5 μm particle size, 100 Å pore size from Phenomenex (Torrance, Calif.). Run conditions: linear AB gradient (1% acetonitrile/min, starting from 2% acetonitrile) at a flow-rate of 1 ml/min, where eluent A is 0.2% aq. TFA and eluent B is 0.18% TFA in acetonitrile; temperature, 30° C. Preparative RP-HPLC: Peptides were dissolved in 0.2% aq. TFA containing 2% acetonitrile to a final concentration of 10 mg/ml. Following filtration through a 0.45 μm Millipore filter and subsequently through a 0.22 μm filter, the peptide solutions were loaded onto the column via multiple 20-ml injections into a 20-ml injection loop at a flow-rate of 10 ml/min. Column, Luna C18 (2), 250×30 mm I.D., 5 um particle size, 100 Å pore size from Phenomenex. Run conditions: 2% acetonitrile/min gradient up to an acetonitrile concentration 10% below that required to elute the peptide during analytical RP-HPLC, then shallow gradient elution (0.05% or 0.1% acetonitrile/min depending on the complexity of impurities near the product of interest on the analytical run of the crude peptide) at a flow-rate of 10 ml/min (same eluents as shown above for analytical RP-HPLC); at room temperature. • Temperature Profiling of Peptides on Reversed-phase HPLC to Measure Dimerization and Oligomerization: Purified peptides were analyzed on an Agilent 1200 series liquid chromatograph for temperature profiling using a Zorbax 300 SB-C8 column (150 mm×2.1 mm I.D.; 5 μm particle size, 300 Å pore size) from Agilent Technologies. […] Temperature profiling was carried out on peptide mixtures run at each temperature in 2° C. increments from 5° C. to 41° C. and 10° C. increments from 5° C. to 75° C. Twenty minutes was allowed between runs for temperature equilibration. • Characterization of Helical Structure: The mean residue molar ellipticities of peptides were determined by circular dichroism (CD) spectroscopy, using a Jasco J-815 spectropolarimeter (Jasco Inc. Easton, Md., USA) at 5° C. under KP buffer (50 mM NaH2PO4/Na2HPO4/100 mM KCl, pH 7.0) as well as in the presence of an α-helix inducing solvent, 2,2,2-trifluoroethanol, TFE, (50 mM NaH2PO4/Na2HPO4/100 mM KCl, pH 7.0 buffer/50% TFE). A 10-fold dilution of an approximately 500 μM stock solution of the peptide analogs was loaded into a 0.1 cm quartz cell and its ellipticity scanned from 195 to 250 nm.

MIC MB9941 [3] | MIC MB9949 [3] | MIC MB9951 [3] | MIC MB9952 [3] | MIC MB9953 [3] | MIC MB9955 [3] | MIC MB9963 [3] | SMILES | number of resistant isolates out of the number of isolates screened [1] | other results
– | – | – | – | – | – | – | NCC[C@H](O)C(=O)N[C@@H]1C[C@H](N)[C@@H](O[C@H]2O[C@H](CN)[C@@H](O)[C@H](O)[C@H]2O)[C@H](O)[C@H]1O[C@H]1O[C@H](CO)[C@@H](O)[C@H](N)[C@H]1O [Amikacin] | 17/20 | –
– | – | – | – | – | – | – | C[C@H]1[C@H](NC(=O)/C(=N\OC(C)(C)C(=O)O)c2csc(N)n2)C(=O)N1S(=O)(=O)O [Aztreonam] | 20/20 | –
– | – | – | – | – | – | – | CO/N=C(\C(=O)N[C@@H]1C(=O)N2C(C(=O)[O-])=C(C[N+]3(C)CCCC3)CS[C@H]12)c1csc(N)n1 [Cefepime] | 18/20 | –
– | – | – | – | – | – | – | CC(C)(O/N=C(\C(=O)N[C@@H]1C(=O)N2C(C(=O)[O-])=C(C[n+]3ccccc3)CS[C@H]12)c1csc(N)n1)C(=O)O [Ceftazidime] | 17/20 | –
– | – | – | – | – | – | – | O=C(O)c1cn(C2CC2)c2cc(N3CCNCC3)c(F)cc2c1=O [Ciprofloxacin] | 15/20 | –
0.3 µM (≈ 0.86 µg/mL) | 0.7 µM (≈ 2.01 µg/mL) | 0.3 µM (≈ 0.86 µg/mL) | 0.7 µM (≈ 2.01 µg/mL) | 0.7 µM (≈ 2.01 µg/mL) | 0.3 µM (≈ 0.86 µg/mL) | 0.7 µM (≈ 2.01 µg/mL) | CC(=O)N[C@H](CCCCN)C(=O)N[C@H](CC(C)C)C(=O)N[C@H](CCCCN)C(=O)N[C@H](CO)C(=O)N[C@H](CC(C)C)C(=O)N[C@H](CC(C)C)C(=O)N[C@H](CCCCN)C(=O)N[C@@H](C(=O)N[C@H](CC(C)C)C(=O)N[C@H](CO)C(=O)N[C@H](CCCCN)C(=O)N[C@H](C)C(=O)N[C@H](CCCCN)C(=O)N[C@H](C)C(=O)N[C@H](C)C(=O)N[C@H](CCCCN)C(=O)N[C@H](CC(C)C)C(=O)N[C@H](CCCCN)C(=O)N[C@@H](C(=O)N[C@H](CC(C)C)C(=O)N[C@H](CC(C)C)C(=O)N[C@H](CCCCN)C(=O)N[C@H](C)C(=O)N[C@H](CC(C)C)C(=O)N[C@H](CO)C(=O)N[C@H](CCCCN)C(N)=O)[C@H](C)O)[C@H](C)O [D84(Lys^1-6Lys-1), Ac-KL(Lys)SLL(Lys)TLS(Lys)AKAAKL(Lys)TLL(Lys)ALS(Lys)-amide] | – | MIC 101887 [2]: 0.7 µM (≈ 2.01 µg/mL); MIC 961997 [2]: 1.4 µM (≈ 4.01 µg/mL); MIC 963618 [2]: 0.7 µM (≈ 2.01 µg/mL); MIC 964304 [2]: 1.4 µM (≈ 4.01 µg/mL); MIC 977751 [2]: 0.3 µM (≈ 0.86 µg/mL); MIC 981653 [2]: 0.7 µM (≈ 2.01 µg/mL); MIC 1002956 [2]: 0.3 µM (≈ 0.86 µg/mL); MIC 1007660 [2]: 0.3 µM (≈ 0.86 µg/mL); MIC 1010282 [2]: 0.7 µM (≈ 2.01 µg/mL); MIC 1035166 [2]: 0.7 µM (≈ 2.01 µg/mL)
0.7 µM (≈ 1.98 µg/mL) | 0.7 µM (≈ 1.98 µg/mL) | 0.7 µM (≈ 1.98 µg/mL) | 0.7 µM (≈ 1.98 µg/mL) | 1.5 µM (≈ 4.24 µg/mL) | 0.7 µM (≈ 1.98 µg/mL) | 0.7 µM (≈ 1.98 µg/mL) | CC(=O)N[C@H](CCCCN)C(=O)N[C@H](CC(C)C)C(=O)N[C@H](CCCCN)C(=O)N[C@H](CO)C(=O)N[C@H](CC(C)C)C(=O)N[C@H](CC(C)C)C(=O)N[C@H](CCCCN)C(=O)N[C@@H](C(=O)N[C@H](CC(C)C)C(=O)N[C@H](CO)C(=O)N[C@H](CCCCN)C(=O)N[C@H](C)C(=O)N[C@H](CCCCN)C(=O)N[C@H](C)C(=O)N[C@H](C)C(=O)N[C@H](CCCCN)C(=O)N[C@H](CC(C)C)C(=O)N[C@H](CCCCN)C(=O)N[C@@H](C(=O)N[C@H](CC(C)C)C(=O)N[C@H](CC(C)C)C(=O)N[C@H](CCCCN)C(=O)N[C@H](C)C(=O)N[C@H](CC(C)C)C(=O)N[C@H](CO)C(=O)N[C@H](CO)C(N)=O)[C@H](C)O)[C@H](C)O [D101(Lys^1Ser^26-5Lys-1), Ac-KL(Lys)SLL(Lys)TLS(Lys)AKAAKL(Lys)TLL(Lys)ALS(Ser)-amide] | – | MIC 101887 [2]: 1.4 µM (≈ 3.95 µg/mL); MIC 961997 [2]: 1.4 µM (≈ 3.95 µg/mL); MIC 963618 [2]: 0.7 µM (≈ 1.98 µg/mL); MIC 964304 [2]: 1.4 µM (≈ 3.95 µg/mL); MIC 977751 [2]: 0.7 µM (≈ 1.98 µg/mL); MIC 981653 [2]: 0.7 µM (≈ 1.98 µg/mL); MIC 1002956 [2]: 0.7 µM (≈ 1.98 µg/mL); MIC 1007660 [2]: 0.7 µM (≈ 1.98 µg/mL); MIC 1010282 [2]: 1.4 µM (≈ 3.95 µg/mL); MIC 1035166 [2]: 1.4 µM (≈ 3.95 µg/mL)
0.8 µM (≈ 2.09 µg/mL) | 0.8 µM (≈ 2.09 µg/mL) | 1.5 µM (≈ 3.92 µg/mL) | 0.8 µM (≈ 2.09 µg/mL) | 0.8 µM (≈ 2.09 µg/mL) | 0.4 µM (≈ 1.05 µg/mL) | 0.8 µM (≈ 2.09 µg/mL) | CC(=O)N[C@H](CCCCN)C(=O)N[C@H](CC(C)C)C(=O)N[C@@H](CN)C(=O)N[C@H](CO)C(=O)N[C@H](CC(C)C)C(=O)N[C@H](CC(C)C)C(=O)N[C@@H](CN)C(=O)N[C@@H](C(=O)N[C@H](CC(C)C)C(=O)N[C@H](CO)C(=O)N[C@H](C)C(=O)N[C@H](C)C(=O)N[C@H](CCCCN)C(=O)N[C@@H](CN)C(=O)N[C@@H](CN)C(=O)N[C@H](CCCCN)C(=O)N[C@H](CC(C)C)C(=O)N[C@H](C)C(=O)N[C@@H](C(=O)N[C@H](CC(C)C)C(=O)N[C@H](CC(C)C)C(=O)N[C@@H](CN)C(=O)N[C@H](C)C(=O)N[C@H](CC(C)C)C(=O)N[C@H](CO)C(=O)N[C@@H](CN)C(N)=O)[C@H](C)O)[C@H](C)O [D106(Lys^1-6 Dap-2), Ac-KL(L-Dap)SLL(L-Dap)TLSAAK(L-Dap)(L-Dap)KLATLL(L-Dap)ALS(L-Dap)-amide] (Ac-[dK][dL][Dap][dS][dL][dL][Dap][dT][dL][dS][dA][dA][dK][Dap][Dap][dK][dL][dA][dT][dL][dL][Dap][dA][dL][dS][Dap]-NH2) | – | –
